The target of the test is T1, PPARγ (Homo sapiens, UniProt P37231).
T1 construct: Either way it is a handle, not a second protein
T1 sequence (P37231 238-505 limits assumed): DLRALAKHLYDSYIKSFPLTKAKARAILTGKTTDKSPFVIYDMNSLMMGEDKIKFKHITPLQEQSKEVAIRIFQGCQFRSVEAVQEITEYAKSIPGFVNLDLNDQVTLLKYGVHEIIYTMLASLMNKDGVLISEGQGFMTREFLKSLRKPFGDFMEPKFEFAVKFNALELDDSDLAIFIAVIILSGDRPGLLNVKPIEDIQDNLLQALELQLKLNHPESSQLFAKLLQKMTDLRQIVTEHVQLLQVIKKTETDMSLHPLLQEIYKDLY
The test is described as follows: Crossover-curve PPAR transactivation test (HeLN cells, luciferase reporter), PPARγ. Type of test: cell-based. Particulars: HeLN cells stably transfected with Gal-hPPARγ; Schild regression against reference agonist; n.a. means not active; read-out: PPARγ Kd app. As to the method:
The activation of receptors with an agonist (activator) in HeLN cells leads to the expression of a reporter gene, luciferase, which, in the presence of a substrate, generates light. The modulation of the receptors is measured by quantifying the luminescence produced after incubating the cells in the presence of a reference agonist. The ligands displace the agonist from its site. The measurement of the activity is performed by quantifying the light produced. This measurement makes it possible to determine the modulatory activity of the compounds according to the invention by determining the constant that is the affinity of the molecule for the receptor. Since this value can fluctuate depending on the basal activity and the expression of the receptor, it is referred to as Kd apparent (KdApp in nM).
To determine this constant, “crossover curves” of the test product against a reference agonist are performed in a 96-well plate: 10 concentrations of the test product plus a concentration 0 are arranged in a line, and 7 concentrations of the agonist plus a concentration 0 are arranged in a column. This is 88 measurement points for 1 product and 1 receptor. The remaining 8 wells are used for repeatability controls.
Measurements are also taken for total agonist controls with the same products.
The HeLN cell lines used are stable transfectants containing the plasmids ERE-βGlob-Luc-SV-Neo (reporter gene) and PPAR (α, δ, γ) Gal-hPPAR. These cells are inoculated into 96-well plates at a rate of 10 000 cells per well in 100 μl of DMEM medium without phenol red and supplemented with 10% of defatted calf serum. The plates are then incubated at 37° C. and 7% CO2 for 16 hours.
The various dilutions of the test products and of the reference ligand are added at a rate of 5 μl per well. The plates are then incubated for 18 hours at 37° C. and 7% CO2. The culture medium is removed by turning over and 100 μl of a 1:1 PBS/luciferine mixture are added to each well. After 5 minutes, the plates are read by the luminescence detector.
In general terms: Reporter assays use an easily measured gene product as a stand-in for the process of interest.
With `COCCOCOc1ccc2cc(C(=O)N(C)Cc3cccc(-c4ccc(Nc5cccc(C(=O)N6CCOCC6)c5)cc4)c3)ccc2c1` [Example 17], the Kd was found to be 500 nM.

As for `CCCCCCCC(=O)N(C)Cc1cccc(-c2ccc(N(C)c3ccccc3C(=O)O)cc2)c1` [Example 8, 2-(methyl-{3′-[(methyloctanoylamino)methyl]biphenyl-4-yl}amino)benzoic acid], the Kd amounted to 250 nM.

On to `COCCOCOc1ccc2cc(C(=O)N(C)Cc3cccc(-c4ccc(Nc5cccc(C(=O)N6CCC(C)CC6)c5)cc4)c3)ccc2c1` [Example 16, N-methyl-N-{4′-[3-(4-methylpiperidine-1-carbonyl)phenylamino]biphenyl-3-ylmethyl}-6-(2-methoxyethoxymethoxy)naphthalene-2-carboxylamide], for which the Kd worked out at 120 nM.

Source of the values: US7125869B2, “Polycyclic compounds which modulate PPARγ type receptors and cosmetic/pharmaceutical compositions comprised thereof” (Galderma Research & Development, priority 2002, dated 2006).
